Assay results reported in patent US20020132236A1, “Specific inhibitors of ribosome recycling factors (RRF)” (priority 2000, published 2002).
Entries after “also recorded” stand apart in the source; their conditions may differ.

Assays:
RRF [1] = molecular target: T1, RRF (Escherichia coli, UniProt P0A805); experiment: RRF reaction: conversion of polysomes to monosomes (sucrose gradient); assay type: biochemical, E. coli; conditions: for Inhibition of the RRF reaction (conversion of polysomes to monosome): dose response, expressed as percent inhibition
Procedure: The reaction mixture (275 μl) contained 72 ng/ml RRF, 0.4 μg/ml EF-G, 363 nM GTP, 10 mM Tris-Cl, pH 7.4, 8.2 mM MgSO4, […] NH4Cl, 0.3 mM DTT, […] puromycin, 1 A260 polysome of E. coli, and an increasing concentration of sd-G4, as indicated in FIG. 1. The reaction mixture is incubated for 15 min at 30° C., loaded onto a sucrose gradient (15% to 30% in buffer J (Hirashima, A., Kaji, A., Biochemistry 11: 461-471, 1972) and centrifuged at 40,000 rpm for 75 min at 4° C. The ISCO density gradient analyzer monitored sedimentation profiles of the polyribosome. The value is expressed as a percent inhibition calculated from the area of 70S and polysome on those profiles.

Swiss Webster male mice = experiment: Toxicity studies in mice; assay type: in vivo; conditions: iv, ip
Procedure: Swiss Webster male mice weighing 20-25 grams receive intraperitoneal or intravenous injections of tetra guanylic acid, dissolved in 0.9% sodium chloride, see Table 1 for dosages.
For sd-G4 to be active as a specific inhibitor of RRF sd-G4 must be non-toxic in living organisms. Dosages (20-125 mg/kg) of sd-G4 and its related tetra nucleotides are administered to mice intraperitonially, as well as intraveniously, and neither acute nor chronic toxicity is noted, i.e., no grossly observable changes in growth activity, locomotor activity, food intake, or water intake during an observation period of 25 days. Moreover, no pathological signs are noted at autopsy (Table 1). […] Thus, sd-G4 is best choice for a lead compound in the computer based rational design of the anti RRF agents.

[2] = test system: translation of polyuridylic acid (Poly U) into polyphenylalanine; experiment: Translation of polyuridylic acid (Poly U) into polyphenylalanine in S30 extract; assay type: biochemical, E. coli; conditions: as high as 10 μM
Procedure: The reaction mixture (30 μl) contains 12 μl S30, Premixture (Promega), 20 μM ^14C-phenylalanine (Amersham, 450 Ci/mole), 10 mM Mg acetate (MgAc), 0.08 μg/ml polyU (Sigma), 1 A260 unit of E. coli S30 extract (Promega), and 1, 4, 7, or 10 μM sd-G4 (FIG. 4). The reaction mixture is incubated at 37° C. At various periods after the onset of the reaction, hot TCA (trichloroacetic acid) insoluble counts are measured.

[3] = test system: MS2 RNA dependent protein synthesis; experiment: MS2 RNA dependent protein synthesis in S30 extract; assay type: biochemical, E. coli; conditions: 7 μM, 8 minute point
Procedure: The reaction mixture (30 μl) contains 12 μl S30 (Kaji, 1968), Premixture (Promega), 2.4 μg MS2 phage RNA (Boehringer Mannheim), 0.1 mM amino acids mixture minus methionine (Promega), 10.1 pmole ^35S-methionine (NEN, 0.6 Ci/μmole), 0.6 A ^260U S30 extract (Promega), and 1, 4, 7, or 10 μM sd-G4 (FIG. 3). The reaction mixture is incubated at 37° C. At various times after the onset of the reaction, hot TCA (trichloroacetic acid) insoluble counts are measured.

E. coli RRF = E. coli RRF (Escherichia coli, UniProt P0A805); experiment: Gel retardation assay with E. coli RRF and 32P-end-labeled sd-G4; assay type: binding; conditions: about 2.4 μM, competed by non-labeled sd-G4, BSA negative control
Procedure: The reaction mixture for the binding of ^32P-end-labeled sd-G4 to RRF (10 μl) contains 8 mM Tris-Cl(pH 7.6), 9.7 mM MgSO4, 81 mM NH4Cl, 1.3 mM DTT, and approximately 2.4 μM of ^32P-end-labeled sd-G4. E. coli RRF, EF-G, polysome, BSA are added as indicated in FIG. 9 and competitor non-labeled sd-G4 is added at ½, 1, 2, and 4 times the concentration of the labeled sd-G4 (FIG. 9). The mixture is incubated at 30° C. for 15 min. 5% Glycerol and one-tenth volume of 25% Ficoll containing xylane cyanol and bromphenol blue is added, and the entire reaction mixture is subjected to 4% polyacrylamide gel (29:1, acrylamide/bisacrylamide) electrophoresis at 10 V/cm with constant recirculation of TBE buffer (89 mM Tris-borate, 2.5 mM EDTA, pH 8.3). The gel is dried onto Whatman 3MM paper and subject to autoradiography.

RRF [4] = molecular target: T1, RRF; experiment: RRF reaction: conversion of polysomes to monosomes (sucrose gradient); assay type: biochemical, E. coli; conditions: 1× RRF (72 ng/ml) vs 2× RRF (144 ng/ml)
RRF [5] = molecular target: T1, RRF; experiment: Release of ribosome-bound deacylated tRNA by RRF; assay type: biochemical; conditions: 7 μM, various amounts of E. coli polysome
Procedure: The reaction mixture (550 μl) for the RRF reaction contains 0.2 nmole RRF where indicated, 0.2 nmole EF-G, 0.37 μM GTP, 275 μM puromycin, 10 μM sd-G4 where indicated, and various amounts of E. coli polysome (see FIG. 8). The mixture is incubated for 15 min. at 30° C. The released tRNA is separated from the complex with pre-washed Microcon 100 (Millipore, 330× g, 40 min). The filter is washed once by centrifugation with 550 μl of a buffer (10 mM Tris-Cl, pH 7.6, 8.2 mM MgSO4, 80 mM NH4Cl, 0.14 mM DTT) and combined with the filtrate. Separated tRNA solution is concentrated with Microcon 30 (Millipore, 14,000× g, 15 min. twice) to a total volume of 14 μl. The concentrated tRNA is charged with 0.15 μCi of ^14C-amino acids mixture (Amersham, 52 mCi/mg) in 30 μl of the reaction mixture (50 mM Tris-Cl, pH 7.8,10 mM MgAc, 6 mM β-mercaptoethanol, 3 mM ATP, 5 mM phosphoenolpyruvate, 138 μg pyruvate kinase, 33.3 μg aminoacyl tRNA synthetases). Cold (4° C.) TCA (trichloro acetic acid) insoluble radioactivity is measured to estimate the amount of tRNA released. In this experiment, the amount of tRNA released is measured by its capacity to accept an amino acid.

T1 sequence (P0A805 whole entry): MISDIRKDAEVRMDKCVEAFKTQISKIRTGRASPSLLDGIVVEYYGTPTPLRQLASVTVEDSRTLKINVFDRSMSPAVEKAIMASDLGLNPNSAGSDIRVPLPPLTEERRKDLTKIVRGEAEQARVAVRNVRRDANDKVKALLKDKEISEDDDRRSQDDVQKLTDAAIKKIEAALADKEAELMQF
Chain of E. coli RRF (P0A805 whole entry): as above

tetracytidylic acid
Inhibition of the RRF reaction (conversion of polysomes to monosome) (RRF [1]): ineffective

5′ phosphorylated sd-G4 [p sd-G4]
Visual effect (Swiss Webster male mice; 20 mg-125 mg/kg): none

Tetraadenylic acid
Inhibition of the RRF reaction (conversion of polysomes to monosome) (RRF [1]): ineffective

phosphorothioate tetradeoxyguanylic acid [sd-G4]
Visual effect (Swiss Webster male mice; 20 mg-125 mg/kg): none
Polyphenylalanine formation (incorporation of labeled phenylalanine) [2]: does not inhibit
Inhibition of protein synthesis (MS2 phage RNA translation) [3]: 50%
Concentration that significantly inhibited the RRF reaction (RRF [1]; 72 ng/ml RRF, 15 min at 30° C.): 5 µM
Inhibition of the RRF reaction (conversion of polysomes to monosome) (RRF [1]): inhibits the RRF reaction in a dose-dependent manner; also recorded: has inhibitory activity; also recorded: effective
Binding to RRF (retarded electrophoretic movement) (E. coli RRF): binds
Effect of excess RRF on inhibition of the RRF reaction (RRF [4]): reduced by addition of more RRF
Release of ribosome-bound deacylated tRNA by RRF (RRF [5]): does not inhibit release of tRNA

riboinosinic tetraphosphate [(RIP)4, reference compound]
Visual effect (Swiss Webster male mice; 125 mg/kg): none

deoxyguarylic acid [d-G4, reference compound]
Visual effect (Swiss Webster male mice; 125 mg/kg): none

phospo diester tetraguanylic acid [pd-G4]
Inhibition of the RRF reaction (conversion of polysomes to monosome) (RRF [1]): not effective in inhibiting RRF
Inhibition of the RRF reaction (conversion of polysomes to monosome) (RRF [1]; listed as phosphodiester oligoG): retains the ability to inhibit RRF to some extent

tetrathymidylic acid
Inhibition of the RRF reaction (conversion of polysomes to monosome) (RRF [1]): ineffective
